Earlier results in publication PMC12239574 (mBio, 2025).

System: SARS-CoV-2 with M^pro E166V

SMILES | fold increase in the antiviral EC50 relative to the wild-type virus [fold]
Cn1cnc(Cn2c(=O)[nH]/c(=N\c3cc4cn(C)nc4cc3Cl)n(Cc3cc(F)c(F)cc3F)c2=O)n1 [ensitrelvir] | 23
CC(C)(C)[C@H](NC(=O)C(F)(F)F)C(=O)N1C[C@H]2[C@@H]([C@H]1C(=O)N[C@H](C#N)C[C@@H]1CCNC1=O)C2(C)C [nirmatrelvir] | 100
